This is an account of results in ChEMBL document CHEMBL1821608, “Fragment library screening reveals remarkable similarities between the G protein-coupled receptor histamine H₄ and the ion channel serotonin 5-HT₃A” (Bioorg Med Chem Lett, 2011).

Active and inactive are the calls of the source. The rule behind the calls is not given here.

The target of test [1] is T1, 5-hydroxytryptamine receptor 3A (Homo sapiens) (UniProt P46098).
T1 sequence (whole entry): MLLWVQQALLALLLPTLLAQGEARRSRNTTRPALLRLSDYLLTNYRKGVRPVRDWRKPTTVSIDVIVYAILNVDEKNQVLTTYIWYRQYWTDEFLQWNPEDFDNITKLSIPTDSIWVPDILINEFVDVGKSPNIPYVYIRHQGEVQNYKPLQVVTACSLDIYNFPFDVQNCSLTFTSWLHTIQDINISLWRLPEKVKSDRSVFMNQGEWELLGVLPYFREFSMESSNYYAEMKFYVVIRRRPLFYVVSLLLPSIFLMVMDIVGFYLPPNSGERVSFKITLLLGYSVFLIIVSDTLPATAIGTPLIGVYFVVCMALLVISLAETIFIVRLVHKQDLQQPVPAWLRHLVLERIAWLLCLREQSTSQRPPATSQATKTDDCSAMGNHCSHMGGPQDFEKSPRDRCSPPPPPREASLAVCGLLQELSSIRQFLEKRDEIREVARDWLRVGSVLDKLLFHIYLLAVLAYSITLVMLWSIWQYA
Briefly: Inhibition of 5-HT3AR at 10 uM.

Test [2] has as its target T2, Histamine H4 receptor (Homo sapiens, UniProt Q9H3N8). Briefly: Displacement of [3H]histamine from human H4R receptor expressed in HEK293 cells at 10 uM after 1.5 hrs by liquid scintillation counting. The test is classed as cell-based.
Test [3] addresses T1, 5-hydroxytryptamine receptor 3A (Homo sapiens). Briefly: Displacement of [3H]granisetron from human 5-HT3AR expressed in HEK293 cells after 24 hrs by liquid scintillation counting. The test is classed as cell-based.
The target of test [4] is T2, Histamine H4 receptor. Briefly: Binding affinity to H4R receptor.

T2 sequence (Q9H3N8 whole entry): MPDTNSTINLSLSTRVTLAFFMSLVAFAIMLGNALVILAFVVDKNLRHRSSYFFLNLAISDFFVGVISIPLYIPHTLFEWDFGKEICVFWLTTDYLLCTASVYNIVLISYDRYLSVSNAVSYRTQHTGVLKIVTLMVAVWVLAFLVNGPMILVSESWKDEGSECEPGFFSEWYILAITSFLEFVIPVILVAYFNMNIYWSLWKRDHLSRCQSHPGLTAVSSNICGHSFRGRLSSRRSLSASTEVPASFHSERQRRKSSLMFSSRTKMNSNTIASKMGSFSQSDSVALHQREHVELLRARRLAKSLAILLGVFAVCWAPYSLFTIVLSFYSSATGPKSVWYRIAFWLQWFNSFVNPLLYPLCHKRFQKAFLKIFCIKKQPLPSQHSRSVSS

As to `Nc1nc2c(c(N3CCNCC3)n1)CCCc1ccccc1-2`, in test [1], the inhibition was determined as 98%. As for `Nc1ccc2cc3ccccc3nc2c1`, the pKi result on Histamine H4 receptor [2] was “inactive”. For the compound `c1cncc(Cc2c[nH]cn2)c1`, in test [3], the pKi result was “inactive”. In turn, `Nc1nc2c(c(N3CCNCC3)n1)CCC1=C2[C@@H]2CCCC[C@@H]2O1` showed a Ki at Histamine H4 receptor [4] of 79.4 nM. As to `CN1CCN(c2cc(-c3ccccc3)ncn2)CC1`, the pKi result in test [3] is “inactive”. Take `c1ccc(CNCCc2c[nH]cn2)cc1`: the pKi result in test [3] is “inactive”. On to `N=C(N)NCCCc1ccccc1`, for which the pKi result on Histamine H4 receptor [2] was “inactive”.

Regarding `Clc1ccc(C2CCNC2)cc1` (stereo not drawn), the pKi entry at Histamine H4 receptor [2] was “inactive”.
